Data: ChEMBL document CHEMBL1127587, “Modeling the anticarcinogenic action of retinoids by making use of the OASIS method. 3. Inhibition of the induction of ornithine decarboxylase by arotinoids” (J Med Chem, 1994)

Assay: Tested for experimental arotinoid inhibitory dose

Compound | -Log ID50
C/C(=C\c1ccc(C(=O)O)cc1)c1ccc2c(c1)C(C)(C)CCO2 | 8.57
C/C(=C\c1ccc(C(=O)O)cc1)c1ccc2c(c1)C(C)(C)CCC2(C)C | 10.52
C/C(=C\c1ccc2c(c1)C(C)(C)CCC2(C)C)c1ccc(C(=O)O)cc1 | 10.52
C/C(=C\c1ccc(C(=O)O)cc1)c1ccc2c(c1)CCCC2(C)C | 9.22
C/C(=C(/F)c1ccc(C(=O)O)cc1)c1cc2c(s1)CCCC2(C)C | 9.22
C/C(=C(/F)c1ccc(C(=O)O)cc1)c1ccc2c(c1)C(C)(C)CCC2(C)C | 10.1
C/C(=C\c1ccc(C(=O)O)cc1)c1ccc2c(c1)C(C)(C)CC[C@H]2C | 10.22
CC1(C)CCC(C)(C)c2cc3cc(-c4ccc(C(=O)O)cc4)ccc3cc21 | 10.15
C/C(=C\c1ccc(C(=O)O)cc1)c1ccc2c(c1)C(C)(C)CCS2 | 9.3
C/C(=C\c1ccc(C(=O)O)cc1)c1ccc2c(c1)C1CCC2C1 (stereo not given) | 8.51
C/C(=C\c1ccc2c(c1)C(C)(C)CCS2)c1ccc(C(=O)O)cc1 | 9.22
C/C(=C\c1ccc(C(=O)O)cc1)c1ccc2c(c1)C(C)(C)CCC2C (stereo not given) | 10.15
COc1ccc(/C(C)=C/c2ccc(C(=O)O)cc2)cc1C(C)(C)C | 9.4
C/C(=C\c1ccc(C(=O)O)cc1)c1ccc(SCCC(C)C)cc1 | 6.77
C/C(=C\c1ccc(C(=O)O)cc1)c1ccc2c(C)c(C)c(C)c(C)c2c1 | 8.8
C/C(=C\c1ccc(C(=O)O)cc1)c1ccc2c(c1)SCCC2(C)C | 9.22
C/C(=C\c1ccc(C(=O)O)cc1)c1ccc2ccc(C)c(C)c2c1 | 6.7
C/C(=C\c1ccc(C(=O)O)cc1)c1ccc2c(c1)C(C)(C)CC[C@@H]2C | 10.3
C/C(=C\c1ccc(C(=O)O)cc1)c1ccc2c(c1)C(C)(C)CCC2 | 8.96
C/C(=C\c1ccc(C(=O)O)cc1)c1cc2c(s1)CCCC2(C)C | 10
